Our source for the IC50 and inhibition values is patent US5760036A, “Aminediol protease inhibitors” (E. R. Squibb & Sons, Inc., priority 1995, dated 1998).

Assay [1] concerns RF strain of HIV (CEM-SS cells). Put plainly: Cell Culture Anti-HIV Activity (cell viability, formazan). The format is cell-based. The conditions noted are these: Human immunodeficiency virus 1, CEM-SS, 144 h, CEM-SS cells, RF strain of HIV, multiplicity of infection 0.04, 6 days at 37° C., 450 nm; read-out: HIV (CEM Cells) IC50. Summed up:
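CEM-SS cells (5000/well) infected with HIV RF at MOI 0.04, exposed to half-log serial compound dilutions, incubated 6 days at 37° C. Viability read by tetrazolium reduction to formazan, absorbance 450 nm. IC50 is the concentration raising formazan in infected cells to 50% of uninfected, drug-free cells.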

The target of a further assay is T1, HIV protease (Human immunodeficiency virus type 1 group M subtype B, UniProt P04585).
T1 construct: and purified protease
Briefly: HIV Protease Assay. The format is biochemical. Summed up: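 Purified protease cleaved 450 μM octapeptide substrate in 50 mM sodium acetate pH 5.5 with 100 μg/ml BSA for 30 minutes at 37° C; product analyzed by reverse-phase HPLC at UV220 after H3PO4 quench. Inhibitors tested at final 10 μM with 4% DMSO.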

[2] abbreviates: pH 5.5, 10 μM inhibitor, 4% DMSO, 450 μM substrate, pH 5.5, 30 minutes at 37° C., RP-HPLC, read-out: HIV Protease % Inhibition at 10 μM.
Where [3] appears, read: pH 5.5, read-out: HIV Protease % Inhibition at 10 μM.

A word on the IC50: it is the concentration that gives 50% inhibition. What is called inhibition is the drop in the measured response relative to a control, in per cent.

Where two headings read alike, the source gives them in different places.

In the case of `CC(C)(C)OC(=O)N[C@@H](C/C=C/c1ccc(OCC(=O)N2CCOCC2)cc1)[C@H](O)CNC[C@@H](O)[C@H](Cc1ccccc1)NC(=O)OC(C)(C)C` [Compound 276, [1S-[1R*,2S*(2S*,3R*)]]-[3-[[3-[[(1,1-Dimethylethoxy)carbonyl]amino]-2-hydroxy-6-[4-[2-(4-morpholinyl)-2-oxoethoxy]phenyl]-5-hexenyl]amino]-2-hydroxy-1-(phenylmethyl)propyl]carbamic acid, 1,1-dimethylethyl ester], in assay [1], the IC50 worked out at 130 nM. The inhibition at 10 µM on HIV protease (setting [2]) came to 97%.
On to `CC(C)(C)OC(=O)N[C@@H](Cc1ccccc1)[C@H](O)CNC[C@@H](O)[C@H](Cc1ccccc1)NC(=O)C(C)(C)O` [Compound 278, [1S-[1R*,2S*(2S*,3R*)]]-[2-Hydroxy-3-[[2-hydroxy-3-[(2-hydroxy-2-methyl-1-oxoproply)amino]-4-phenylbutyl]amino]-1-(phenylmethyl)propyl]carbamic acid, 1,1-dimethylethyl ester], for which the IC50 in assay [1] was 840 nM. Also, on HIV protease (setting [3]), the inhibition at 10 µM amounted to 94%.
Regarding `CC(C)(C)OC(=O)N[C@@H](Cc1ccccc1)[C@H](O)CNC[C@@H](O)[C@H](Cc1ccc(OCCc2ccccn2)cc1)NC(=O)OC(C)(C)CO` [Compound 282, [1S-[1R*,2S*(2S*,3R*)]]-[3-[[3-[[(1,1-Dimethylethoxy)carbonyl]amino]-2-hydroxy-4-phenylbutyl]amino]-2-hydroxy-1-[[4-[2-(2-pyridinyl)ethoxy]phenyl]methyl]propyl]carbamic acid, 2-hydroxy-1,1-dimethylethyl ester], the IC50 in assay [1] was 60 nM. Moreover, the inhibition at 10 µM at HIV protease (setting [2]) came to 100%.
The matching figures for `COCCOc1ccc(C[C@H](NC(=O)OC(C)(C)CO)[C@H](O)CNC[C@@H](O)[C@H](Cc2ccccc2)NC(=O)OC(C)(C)C)cc1` [Compound 283, [1S-[1R*,2S*(2S*,3R*)]]-[3-[[3-[[(1,1-Dimethylethoxy)carbonyl]amino]-2-hydroxy-4-phenylbutyl]amino]-2-hydroxy-1-8 [4-(2-methoxyethoxy)phenyl]methyl]propyl]carbamic acid, 2-hydroxy-1,1-dimethylethyl ester]: 110 nM and 100%.
On to `CC(C)(C)OC(=O)N[C@@H](Cc1ccccc1)[C@H](O)CNC[C@@H](O)[C@H](Cc1ccc(OCCn2ccnc2)cc1)NC(=O)OC(C)(C)C` [Compound 290, [1S-[1R*,2S*(2S*,3R*)]]-[3-[[3-[[(1,1-Dimethylethoxy)carbonyl]amino]-2-hydroxy-4-[4-[2-(1H-imidazol-1-yl)-ethoxy]phenyl]butyl]amino]-2-hydroxy-1-(phenylmethyl)-propyl]carbamic acid, 1,1-dimethylethyl ester], for which the IC50 in assay [1] turned out to be 60 nM. The inhibition at 10 µM at HIV protease (setting [3]) is 99%.
On to `CC(C)(C)OC(=O)N[C@@H](Cc1ccccc1)[C@H](O)CNC[C@@H](O)[C@H](Cc1ccccc1)NC(=O)[C@@H](NC(=O)OCc1nc2ccccc2s1)C(C)(C)C` [Compound 292, [S-[1R*,2S*(2S*,3R*)]]-[2,2-Dimethyl-1-[[[3-[[3-[[(1,1-dimethylethoxy)carbonyl]amino]-2-hydroxy-4-phenylbutyl]amino]-2-hydroxy-1-(phenylmethyl)propyl]amino]carbonyl]propyl]carbamic acid, (2-benzothiazolyl)methyl ester], for which the IC50 in assay [1] was found to be 170 nM. Further, on HIV protease (setting [2]), the inhibition at 10 µM was determined as 99%.
For `CC(C)(C)OC(=O)N[C@@H](Cc1ccc(OCCc2ccccn2)cc1)[C@H](O)CNC[C@@H](O)[C@H](Cc1ccccc1)NC(=O)OC(C)(C)CO` [Compound 298, [1S-[1R*,2S*(2S*,3R*)]]-[2 Hydroxy-3-[[2-hydroxy-3-[[(2-hydroxy-1,1-dimethylethoxy)carbonyl]amino]-4-phenylbutyl]amino]-1-[[4-[2-(2-pyridinyl)ethoxy]phenyl]methyl]propyl]carbamic acid, 1,1-dimethylethyl ester], the IC50 in assay [1] was 60 nM. Besides, the inhibition at 10 µM at HIV protease (setting [2]) came to 100%.
The matching figures for `COCCOc1ccc(C[C@H](NC(=O)OC(C)(C)C)[C@H](O)CNC[C@@H](O)[C@H](Cc2ccccc2)NC(=O)OC(C)(C)CO)cc1` [Compound 299, [1S-[1R*, 2S*(2S*,3R*)]-[3-[[(1,1-Dimethylethoxy)carbonyl]amino]-2-hydroxy-4-[4-(2-methoxyethoxy)phenyl]butyl]amino]-2-hydroxy-1-(phenylmethyl)propyl]carbamic acid, 1-(hydroxymethyl)-1-methylethyl ester]: 240 nM and 99%.
The matching figures for `COCCCCOc1ccc(C[C@H](NC(=O)OC(C)(C)C)[C@H](O)CNC[C@@H](O)[C@H](Cc2ccccc2)NC(=O)OC(C)(C)C)cc1` [Compound 300, [1S-[1R*,2S*(2S*,3R*)]]-[3-[[3-[[(1,1-Dimethylethoxy)-carbonyl]amino]-2-hydroxy-4-[4-(4-methoxybutoxy)phenyl]butyl]amino]-2-hydroxy-1-(phenylmethyl)propyl]carbamic acid, 1,1-dimethylethyl ester]: 30 nM and 99%.
For `CC(C)(C)OC(=O)N[C@@H](Cc1ccccc1)[C@H](O)CNC[C@@H](O)[C@H](Cc1ccccc1)NC(=O)OC1(CO)CCC1` [Compound 303, [1S-(1R*,2S*)]-[Iminobis[2-hydroxy-1-(phenylmethyl)-3,1-propanediyl]]bis[[carbamic acid], 1-(hydroxymethyl)cyclobutyl 1,1-dimethylethyl ester], in assay [1], the IC50 turned out to be 70 nM. For the same molecule, on HIV protease (setting [2]), the inhibition at 10 µM worked out at 98%.
The matching figures for `CC(C)(C)OC(=O)N[C@@H](Cc1ccccc1)[C@H](O)CNC[C@@H](O)[C@H](Cc1ccc(OCCOc2cccnc2)cc1)NC(=O)OC(C)(C)C` [Compound 304, [1S-[1R*,2S* (2S*, 3R*)]]-[3-[[3-[[(1,1-Dimethylethoxy)carbonyl]amino]-2-hydroxy-4-[4-[2-(3-pyridinyloxy)ethoxylphenyl]butyl]amino]-2-hydroxy-1-(phenylmethyl)propyl]carbamic acid, 1,1-dimethylethyl ester]: 30 nM and 99%.
Take `CC(O)COc1ccc(C[C@H](NC(=O)OC(C)(C)C)[C@H](O)CNC[C@@H](O)[C@H](Cc2ccccc2)NC(=O)OC(C)(C)C)cc1` (stereo partly drawn) [Compound 306, [1S-[1R*, 2S* (2S*, 3R*)]-[3-[[(1,1-Dimethylethoxy)carbonyl]amino]-2-hydroxy-4-[4-(2-hydroxypropoxy)phenyl]butyl]amino]-2-hydroxy-1-(phenylmethyl)propyl]carbamic acid, 1.1-dimethylethyl ester]: the IC50 in assay [1] is 60 nM. Further, the inhibition at 10 µM on HIV protease (setting [2]) turned out to be 100%.
The matching figures for `CC(C)(C)OC(=O)N[C@@H](Cc1ccccc1)[C@H](O)CNC[C@@H](O)[C@H](Cc1ccccc1)NC(=O)OC1CCOC1` (stereo partly drawn) [Compound 310, [1S-(1R*,2S*)]l-[Iminobis[2-hydroxy-1-(phenylmethyl)3,1-propanediyl]]bis[carbamic acid], 3-tetrahydrofuranyl 1,1-dimethylethyl ester]: 180 nM and 100%.
The matching figures for `CC(C)(C)OC(=O)N[C@@H](Cc1ccccc1)[C@H](O)CNC[C@@H](O)[C@H](Cc1ccccc1)NC(=O)[C@@H](NC(=O)OCc1cnc2ccccc2n1)C(C)(C)C` [Compound 311, [S-[1R*,2S*(2S*,3R*)]]-[2.2-Dimethyl-1-[[[3-[[(1,1-dimethylethoxy)carbonyl]amino]-2-hydroxy-4-phenylbutyl]amino]-2-hydroxy-1-(phenylmethyl)-propyl]aminocarbonyl]propyl]carbamic acid, (2-quinoxalinyl)methyl ester]: 50 nM and 100%.
The matching figures for `CC(C)(C)OC(=O)N[C@@H](Cc1ccccc1)[C@H](O)CNC[C@@H](O)[C@H](Cc1ccccc1)NC(=O)OC1(C)CCOC1` (stereo partly drawn) [Compound 314, [1S-(1R*,2S*)]-[Iminobis[2-hydroxy-1-(phenylmethyl)-3,1-propanediyl]]bis[carbamic acid], 1,1-dimethylethyl-3-methyl-3-tetrahydrofuranyl ester]: 120 nM and 100%.
In the case of `CC(C)(C)OC(=O)N[C@@H](Cc1ccccc1)[C@H](O)CNC[C@@H](O)[C@H](Cc1ccccc1)NC(=O)[C@@H](NC(=O)OCC1COC(=O)N1)C(C)(C)C` (stereo partly drawn) [Compound 315, [S-[1R*,2S*(2S*,3R*)]]-[2,2-Dimethyl-l-[[[3-[[3-[[(1,1-dimethylethoxy)carbonyl]amino]-2-hydroxy-4-phenylbutyl]amino]-2-hydroxy-1-(phenylmethyl)-propyl]amino]carbonyl]propyl]carbamic acid, (2-oxo-4-oxazolidinyl)methyl ester], the IC50 in assay [1] came out at 1600 nM. The inhibition at 10 µM on HIV protease (setting [2]) is 100%.
The matching figures for `CC(C)(C)OC(=O)N[C@@H](Cc1ccccc1)[C@H](O)CNC[C@@H](O)[C@H](Cc1ccccc1)NC(=O)O[C@H]1COC[C@@H]1O` [Compound 316, [1S-(1R*,2S*), (3S-trans)]-[Iminobis[2-hydroxy-1-(phenylmethyl)-3,1-propanediyl]]bis[carbamic acid], 4-hydroxy-3-tetrahydrofuranyl 1,1-dimethylethyl ester]: 620 nM and 97%.
